“And” between values parts separate entries of the source, which are not always exact repeats. Equal values may be shown once.
What was measured:
[1] = biological target: T1, ACSS2 (Homo sapiens, UniProt Q9NR19); assay: cell-based
Method: (§1) ACSS2 Cellular Activity Assay (Cellular IC50)
(§2) The cellular activity of ACSS2 was based on tracing the incorporation of carbons from ^13C-Acetate into fatty-acids.
(§3) BT474/MDA-MB-468 cells growing in DMEM+25 mM D-glucose+1 mM sodium pyruvate+10% FBS+2 mM glutamine were plated in 12-well plates at 0.4×10^6 cells/well. The cells were then incubated at CO2 incubator for 24 hrs at hypoxic conditions (1% O2) before treated with compounds. At day 2, the medium was replaced to DMEM medium containing 15 mM Glucose, 1 mM Pyruvate, 0.65 mM Glutamine, 1% Dialyzed serum, 3.5 ug/ml Biotin, 0.2 mM ^13C-Acetate and various concentrations of the compounds. The cells were incubated for 5 hours at CO2 incubator in hypoxic conditions (1% O2). At the end of the 5 hours' incubation, the cells were washed twice with cold PBS, harvested in 1 ml PBS and transfer into V-shaped HPLC glass vials and centrifuge for 10 min at 600 g at 4 C. The supernatant was removed, and the cells' pellets were stored at −80° C. until taken for saponification.
(§4) The cells pellets were resuspended with 0.5 ml of the 90% Methanol, 10% H2O, 0.3M NaOH mixture and incubated at 80° C. for 60 min. Following the incubation, 50 μl formic acid and 0.4 ml hexane were added and the mixture was vortexed for 2 minutes. The vials were left few minutes for phases separation and then 200 μl of the top hexane phase extracted to a new glass vial. The hexane was dried under nitrogen and reconstituted in 100 μl of Methanol:Acetonitrile 5:3 mixture. The solution transferred to Eppendorf tubes, spun down at 17000 G for 20 min and transferred to LC-MS vials.
(§5) The analysis was performed with Thermo Q Exactive mass spectrometer with HESI probe and Dionex Ultimate 3000 UHPLC system. The separations were performed on Phenomenex Kintex 2.6u XB-C18 100A 150×2.10 mm column by injecting 5 ul of each sample. The chromatography started with a linear gradient from 85% to 100% of organic solvent (Methanol:Acetonitrile 1:1) versus 10 mM Ammonium Acetate buffer pH 4.7 for 3.5 minutes, followed by 4.5 minutes of isocratic 100% organic solvent and then 3 minutes of isocratic initial conditions, at a flow rate of 0.3 ul/min. The MS source conditions that were used: capillary temperature 325° C., sheath flow 25, aux flow 15, spray voltage 3.8 kV, aux temperature 300° C. The data collected from Negative ion mode at resolution of 70000 at Full-MS mode in 75-1000 m/z range.
(§6) The analysis of ^13C acetate incorporation into fatty acids (palmitate, myristate and stearate) performed on TraceFinder 3.2.512.0. The negative control areas and ^13C isotopic theoretical natural abundance were subtracted from the samples areas. Total ^13C incorporation for each fatty-acid (palmitate, myristate and stearate) was calculated and presented as percentage of the total amount.

[2] = biological target: T1, ACSS2; assay: cell-based; remark: listed apart in the source
Method: Testing the inhibitory effect of compounds on the cellular activity of ACSS2 was done by tracing the incorporation of ^13C from ^13C-acetate into fatty-acids in MDA-MB-468 cells under hypoxic conditions of 1% 02. The assay was done for 5 hours in DMEM with 5.5 mM glucose, 1 mM sodium Pyruvate, 0.65 mM Glutamine, 3.5 ug/ml Biotin, 1% dialyzed serum, 0.5 mM 13C-acetate and with different concentrations of the inhibitors. At the end of the incubation, the cells were washed with cold PBS, harvested into glass tubes and undergo saponification. The level of ^13C incorporation into Palmitate was done by LC-MS analysis and the level of inhibition was calculated with PRISM software.

[3] = biological target: T1, ACSS2; assay: biochemical
Method: ACSS2 Cell-Free Activity Assay (Cell-Free IC50)
The assay is based on a coupling reaction with Pyrophosphatase: ACSS2 is converting ATP+CoA+Acetate=>AMP+pyrophosphate+Acetyl-CoA (Ac-CoA). Pyrophosphatase converts pyrophosphate, a product of the ACSS2 reaction, to phosphate which can be detected by measuring the absorbance at 620 nm after incubation with the Biomol green reagent (Enzo life Science, BML-AK111).
Cell-free IC50 Determination:
At the end of the reaction, Biomol Green was added for 30 minutes at RT and the activity was measured by reading the absorbance at 620 nm.

[4] = biological target: T1, ACSS2; assay: cell-based; remark: listed apart in the source
Method: as §1, §2, §3, §4, §5, §6

T1 sequence (Q9NR19 whole entry): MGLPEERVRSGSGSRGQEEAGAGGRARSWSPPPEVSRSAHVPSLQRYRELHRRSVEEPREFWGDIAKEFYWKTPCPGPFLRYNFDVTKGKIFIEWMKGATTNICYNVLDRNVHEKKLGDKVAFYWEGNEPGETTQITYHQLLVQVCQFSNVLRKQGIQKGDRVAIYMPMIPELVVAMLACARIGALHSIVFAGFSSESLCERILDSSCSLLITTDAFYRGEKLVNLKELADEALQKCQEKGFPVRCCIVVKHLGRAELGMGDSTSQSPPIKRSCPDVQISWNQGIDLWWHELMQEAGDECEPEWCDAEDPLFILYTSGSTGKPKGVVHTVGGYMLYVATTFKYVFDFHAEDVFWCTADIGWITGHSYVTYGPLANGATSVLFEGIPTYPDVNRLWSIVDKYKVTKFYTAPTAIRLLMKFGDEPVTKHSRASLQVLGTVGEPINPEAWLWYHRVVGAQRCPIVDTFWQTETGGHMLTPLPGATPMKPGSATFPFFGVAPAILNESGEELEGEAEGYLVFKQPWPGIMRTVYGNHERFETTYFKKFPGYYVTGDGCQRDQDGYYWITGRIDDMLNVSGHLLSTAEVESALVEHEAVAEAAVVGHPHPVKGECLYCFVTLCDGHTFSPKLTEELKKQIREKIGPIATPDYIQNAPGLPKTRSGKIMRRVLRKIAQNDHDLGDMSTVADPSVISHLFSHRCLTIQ

| IC50 [1] | IC50 [2] | IC50 [3] | IC50 [4] | Structure (SMILES) |
| --- | --- | --- | --- | --- |
| ≥ 1000 nM and 100 to 1000 nM | 0.5 to 50 nM | 6 to 100 nM | 100 to 1000 nM | CC1=NN(c2ccccc2)C(=O)C1C(=O)Nc1cccc(-c2ncc[nH]2)c1 (stereo not shown) [compound 107, N-(3-(1H-imidazol-2-yl)phenyl)-3-methyl-5-oxo-1-phenyl-4,5-dihydro-1H-pyrazole-4-carboxamide] |
| 100 to 1000 nM | 50 to 100 nM | 0.01 to 6 nM | – | CC1=NN(c2ccccc2)C(=O)C1C(=O)Nc1cccc(-c2cnccn2)c1 (stereo not shown) [compound 109, 3-methyl-5-oxo-1-phenyl-N-(3-(pyrazin-2-yl)phenyl)-4,5-dihydro-1H-pyrazole-4-carboxamide] |
| < 100 nM and 100 to 1000 nM | 0.5 to 50 nM | 0.01 to 6 nM | – | CCC(=O)c1cccc(NC(=O)C2C(=O)N(c3ccccc3)N=C2C)c1 (stereo not shown) [compound 117, 3-methyl-5-oxo-1-phenyl-N-(3-propionylphenyl)-4,5-dihydro-1H-pyrazole-4-carboxamide] |
| 100 to 1000 nM | 0.5 to 50 nM | 0.01 to 6 nM | – | CC1=NN(c2ccccc2)C(=O)C1C(=O)Nc1cccc(C2CC2)c1 (stereo not shown) [compound 119, N-(3-cyclopropylphenyl)-3-methyl-5-oxo-1-phenyl-4,5-dihydro-1H-pyrazole-4-carboxamide] |
| 100 to 1000 nM | > 100 nM | 6 to 100 nM | 100 to 1000 nM | CC1=NN(c2ccccc2)C(=O)C1C(=O)Nc1cccc(-c2ncco2)c1 (stereo not shown) [compound 124, 3-methyl-N-(3-(oxazol-2-yl)phenyl)-5-oxo-1-phenyl-4,5-dihydro-1H-pyrazole-4-carboxamide] |
| 100 to 1000 nM | 0.5 to 50 nM | 6 to 100 nM | – | CCc1cccc(NC(=O)C2C(=O)N(c3ccc(OC)cc3)N=C2C)c1 (stereo not shown) [compound 138, N-(3-ethylphenyl)-1-(4-methoxyphenyl)-3-methyl-5-oxo-4,5-dihydro-1H-pyrazole-4-carboxamide] |
| < 100 nM | 0.5 to 50 nM | 0.01 to 6 nM | < 100 nM | CC1=NN(c2ccccc2)C(=O)C1C(=O)Nc1cccc(C(C)(F)F)c1 (stereo not shown) [compound 141, N-(3-(1,1-difluoroethyl)phenyl)-3-methyl-5-oxo-1-phenyl-4,5-dihydro-1H-pyrazole-4-carboxamide] |
| 100 to 1000 nM | > 100 nM | 6 to 100 nM | 100 to 1000 nM | CCc1cccc(NC(=O)C2C(=O)N(c3ccc(OC(C)C)cc3)N=C2C)c1 (stereo not shown) [compound 142, N-(3-ethylphenyl)-1-(4-isopropoxyphenyl)-3-methyl-5-oxo-4,5-dihydro-1H-pyrazole-4-carboxamide] |
| – | > 100 nM | 6 to 100 nM | ≥ 1000 nM | CC1=NN(c2cccc(C(=O)O)c2)C(=O)C1C(=O)Nc1cccc(-c2ccco2)c1 (stereo not shown) [compound 159, 3-(4-((3-(furan-2-yl)phenyl)carbamoyl)-3-methyl-5-oxo-4,5-dihydro-1H-pyrazol-1-yl)benzoic acid] |
| – | 0.5 to 50 nM | 0.01 to 6 nM | < 100 nM | CC1=NN(c2cccc(C(F)(F)F)c2)C(=O)C1C(=O)Nc1cccc(-c2ccco2)c1 (stereo not shown) [compound 165] |
| – | > 100 nM | 0.01 to 6 nM | < 100 nM (2×) and 100 nM to 1 µM | CC1=NN(c2cccc(C(F)(F)F)c2)C(=O)C1C(=O)Nc1cccc(-c2cnccn2)c1 (stereo not shown) [compound 166, 3-methyl-5-oxo-N-(3-(pyrazin-2-yl)phenyl)-1-(3-(trifuoromethyl)phenyl)-4,5-dihydro-1H-pyrazole-4-carboxamide] |
| – | 0.5 to 50 nM | 6 to 100 nM | 100 to 1000 nM | CCc1cccc(NC(=O)C2C(=O)N(c3ccc4c(c3)OCO4)N=C2C)c1 (stereo not shown) [compound 168] |
| – | > 100 nM | 6 to 100 nM | ≥ 1000 nM | CC1=NN(c2cccc(C(=O)O)c2)C(=O)C1C(=O)Nc1cccc(-c2cnccn2)c1 (stereo not shown) [compound 169] |
| 100 to 1000 nM | – | 6 to 100 nM | – | CCc1cccc(NC(=O)C2C(=O)N(c3ccccc3)N=C2C)c1 (stereo not shown) [compound 184, N-(3-ethylphenyl)-3-methyl-5-oxo-1-phenyl-4,5-dihydro-1H-pyrazole-4-carboxamide] |
| 100 to 1000 nM | 50 to 100 nM | 0.01 to 6 nM | – | COC(=O)c1cccc(NC(=O)C2C(=O)N(c3ccccc3)N=C2C)c1 (stereo not shown) [compound 206, 3-(3-methyl-5-oxo-1-phenyl-4,5-dihydro-1H-pyrazole-4-carboxamido)benzoate] |
| ≥ 1000 nM and 100 to 1000 nM | > 100 nM | 6 to 100 nM | – | CC1=NN(c2ccccc2)C(=O)C1C(=O)Nc1cccc(C(F)(F)F)c1 (stereo not shown) [compound 208, 3-methyl-5-oxo-1-phenyl-N-(3-(trifluoromethyl)phenyl)-4,5-dihydro-1H-pyrazole-4-carboxamide] |
| 100 to 1000 nM | – | 6 to 100 nM | – | CC1=NN(c2ccccc2)C(=O)C1C(=O)Nc1cccc(Br)c1 (stereo not shown) [compound 215, N-(3-bromophenyl)-3-methyl-5-oxo-1-phenyl-4,5-dihydro-1H-pyrazole-4-carboxamide] |
| 100 to 1000 nM | > 100 nM | 0.01 to 6 nM | < 100 nM | CC1=NN(c2ccccc2)C(=O)C1C(=O)Nc1cccc(C(=O)N(C)C)c1 (stereo not shown) [compound 220, N-(3-(dimethylcarbamoyl)phenyl)-3-methyl-5-oxo-1-phenyl-4,5-dihydro-1H-pyrazole-4-carboxamide] |

| Structure (SMILES) | IC50 [1] | IC50 [2] | IC50 [3] | IC50 [4] |
| --- | --- | --- | --- | --- |
| CC1=NN(c2ccccc2)C(=O)C1C(=O)Nc1cccc(-c2ccco2)c1 (stereo not shown) [compound 108, N-(3-(furan-2-yl)phenyl)-3-methyl-5-oxo-1-phenyl-4,5-dihydro-1H-pyrazole-4-carboxamide] | < 100 nM | 0.5 to 50 nM | 0.01 to 6 nM | < 100 nM |

From patent publication US10851064B2, “ACSS2 inhibitors and methods of use thereof” (METABOMED LTD., priority 2017, dated 2020)
